Assay results as given in ChEMBL document CHEMBL5291721, “A preclinical secondary pharmacology resource illuminates target-adverse drug reaction associations of marketed drugs” (Nat Commun, 2023).

Legend:
[1] = target: T1, Alpha-1A adrenergic receptor (Homo sapiens, UniProt P35348); type: functional, cell-based
T1 sequence (P35348 whole entry): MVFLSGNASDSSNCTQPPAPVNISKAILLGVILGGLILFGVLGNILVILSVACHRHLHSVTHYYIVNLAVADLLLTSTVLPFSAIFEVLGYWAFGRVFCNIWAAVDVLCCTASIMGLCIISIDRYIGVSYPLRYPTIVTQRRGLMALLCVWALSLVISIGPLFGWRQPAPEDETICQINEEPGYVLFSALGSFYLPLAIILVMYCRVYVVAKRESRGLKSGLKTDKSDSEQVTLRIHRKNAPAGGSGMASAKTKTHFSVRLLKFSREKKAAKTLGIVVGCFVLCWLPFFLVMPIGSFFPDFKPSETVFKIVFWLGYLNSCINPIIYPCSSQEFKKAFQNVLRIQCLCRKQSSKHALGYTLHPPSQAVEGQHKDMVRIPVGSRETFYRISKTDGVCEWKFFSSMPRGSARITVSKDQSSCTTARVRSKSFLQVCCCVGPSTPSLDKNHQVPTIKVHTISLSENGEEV

[2] = target: T2, Muscarinic acetylcholine receptor M2 (Homo sapiens, UniProt P08172); type: functional, cell-based
T2 sequence (P08172 whole entry): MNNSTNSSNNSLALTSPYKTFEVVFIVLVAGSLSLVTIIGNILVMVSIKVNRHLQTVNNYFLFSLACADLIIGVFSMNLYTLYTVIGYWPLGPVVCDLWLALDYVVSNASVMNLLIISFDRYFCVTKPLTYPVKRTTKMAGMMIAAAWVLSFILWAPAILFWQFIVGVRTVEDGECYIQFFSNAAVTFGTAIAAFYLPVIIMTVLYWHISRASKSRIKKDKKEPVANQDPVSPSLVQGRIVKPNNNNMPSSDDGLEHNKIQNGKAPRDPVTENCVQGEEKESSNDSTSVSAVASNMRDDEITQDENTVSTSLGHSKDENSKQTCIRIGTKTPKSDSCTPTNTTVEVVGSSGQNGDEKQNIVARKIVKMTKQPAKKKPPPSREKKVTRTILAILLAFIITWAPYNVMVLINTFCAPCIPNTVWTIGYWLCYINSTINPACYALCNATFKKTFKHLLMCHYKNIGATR

[3] = target: Voltage-gated inwardly rectifying potassium channel KCNH2 (Homo sapiens, UniProt Q12809); type: functional
[4] = target: T3, Prostaglandin G/H synthase 1 (Rattus norvegicus, UniProt Q63921); type: functional
T3 sequence (Q63921 whole entry): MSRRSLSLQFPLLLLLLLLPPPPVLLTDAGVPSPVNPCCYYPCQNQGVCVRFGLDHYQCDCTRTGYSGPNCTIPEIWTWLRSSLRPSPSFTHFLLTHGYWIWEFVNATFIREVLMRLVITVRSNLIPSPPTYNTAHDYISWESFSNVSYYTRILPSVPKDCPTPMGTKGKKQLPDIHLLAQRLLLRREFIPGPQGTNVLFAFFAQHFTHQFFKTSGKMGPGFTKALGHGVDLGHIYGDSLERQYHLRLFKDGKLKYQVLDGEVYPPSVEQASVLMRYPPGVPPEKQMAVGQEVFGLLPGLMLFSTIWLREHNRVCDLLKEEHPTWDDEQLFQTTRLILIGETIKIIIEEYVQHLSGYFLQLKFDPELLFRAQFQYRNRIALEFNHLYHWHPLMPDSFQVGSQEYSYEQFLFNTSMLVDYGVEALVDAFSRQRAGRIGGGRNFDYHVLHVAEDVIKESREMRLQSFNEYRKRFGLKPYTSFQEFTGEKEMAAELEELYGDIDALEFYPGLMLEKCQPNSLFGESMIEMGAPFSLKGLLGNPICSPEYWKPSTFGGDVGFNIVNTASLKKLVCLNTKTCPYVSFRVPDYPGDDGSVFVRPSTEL

[5] = target: T4, Equilibrative nucleoside transporter 1 (Homo sapiens, UniProt Q99808)
T4 sequence (Q99808 whole entry): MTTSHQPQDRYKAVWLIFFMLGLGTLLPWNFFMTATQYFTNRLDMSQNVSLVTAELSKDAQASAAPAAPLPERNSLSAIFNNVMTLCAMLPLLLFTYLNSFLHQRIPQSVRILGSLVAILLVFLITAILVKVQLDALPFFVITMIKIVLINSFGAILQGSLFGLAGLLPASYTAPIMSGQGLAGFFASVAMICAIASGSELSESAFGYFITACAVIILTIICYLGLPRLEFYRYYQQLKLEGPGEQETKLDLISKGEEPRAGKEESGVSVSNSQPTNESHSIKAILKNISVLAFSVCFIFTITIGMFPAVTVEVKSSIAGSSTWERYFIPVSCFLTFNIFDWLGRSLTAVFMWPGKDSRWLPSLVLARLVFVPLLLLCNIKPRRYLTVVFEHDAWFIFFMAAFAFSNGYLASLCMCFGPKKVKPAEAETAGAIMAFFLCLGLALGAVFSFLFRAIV

[6] = target: Voltage-dependent L-type calcium channel subunit alpha-1C (Rattus norvegicus, UniProt P22002); type: functional
Thromboxane A2 receptor = target: T5, Thromboxane A2 receptor (Homo sapiens, UniProt P21731)
T5 sequence (P21731 whole entry): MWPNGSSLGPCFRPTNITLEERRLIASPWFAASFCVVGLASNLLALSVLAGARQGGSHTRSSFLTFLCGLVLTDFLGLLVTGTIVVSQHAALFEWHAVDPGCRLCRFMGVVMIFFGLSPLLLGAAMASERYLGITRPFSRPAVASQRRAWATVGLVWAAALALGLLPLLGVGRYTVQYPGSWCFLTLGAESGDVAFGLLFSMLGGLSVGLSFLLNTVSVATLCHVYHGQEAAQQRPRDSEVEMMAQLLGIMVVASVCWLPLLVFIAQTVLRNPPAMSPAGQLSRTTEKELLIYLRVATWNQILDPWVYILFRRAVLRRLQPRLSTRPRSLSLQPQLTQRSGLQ

[7] = target: Kappa-type opioid receptor (Homo sapiens, UniProt P41145)
Note: assay procedure not described here.

Sequence of Voltage-gated inwardly rectifying potassium channel KCNH2 (Q12809 whole entry): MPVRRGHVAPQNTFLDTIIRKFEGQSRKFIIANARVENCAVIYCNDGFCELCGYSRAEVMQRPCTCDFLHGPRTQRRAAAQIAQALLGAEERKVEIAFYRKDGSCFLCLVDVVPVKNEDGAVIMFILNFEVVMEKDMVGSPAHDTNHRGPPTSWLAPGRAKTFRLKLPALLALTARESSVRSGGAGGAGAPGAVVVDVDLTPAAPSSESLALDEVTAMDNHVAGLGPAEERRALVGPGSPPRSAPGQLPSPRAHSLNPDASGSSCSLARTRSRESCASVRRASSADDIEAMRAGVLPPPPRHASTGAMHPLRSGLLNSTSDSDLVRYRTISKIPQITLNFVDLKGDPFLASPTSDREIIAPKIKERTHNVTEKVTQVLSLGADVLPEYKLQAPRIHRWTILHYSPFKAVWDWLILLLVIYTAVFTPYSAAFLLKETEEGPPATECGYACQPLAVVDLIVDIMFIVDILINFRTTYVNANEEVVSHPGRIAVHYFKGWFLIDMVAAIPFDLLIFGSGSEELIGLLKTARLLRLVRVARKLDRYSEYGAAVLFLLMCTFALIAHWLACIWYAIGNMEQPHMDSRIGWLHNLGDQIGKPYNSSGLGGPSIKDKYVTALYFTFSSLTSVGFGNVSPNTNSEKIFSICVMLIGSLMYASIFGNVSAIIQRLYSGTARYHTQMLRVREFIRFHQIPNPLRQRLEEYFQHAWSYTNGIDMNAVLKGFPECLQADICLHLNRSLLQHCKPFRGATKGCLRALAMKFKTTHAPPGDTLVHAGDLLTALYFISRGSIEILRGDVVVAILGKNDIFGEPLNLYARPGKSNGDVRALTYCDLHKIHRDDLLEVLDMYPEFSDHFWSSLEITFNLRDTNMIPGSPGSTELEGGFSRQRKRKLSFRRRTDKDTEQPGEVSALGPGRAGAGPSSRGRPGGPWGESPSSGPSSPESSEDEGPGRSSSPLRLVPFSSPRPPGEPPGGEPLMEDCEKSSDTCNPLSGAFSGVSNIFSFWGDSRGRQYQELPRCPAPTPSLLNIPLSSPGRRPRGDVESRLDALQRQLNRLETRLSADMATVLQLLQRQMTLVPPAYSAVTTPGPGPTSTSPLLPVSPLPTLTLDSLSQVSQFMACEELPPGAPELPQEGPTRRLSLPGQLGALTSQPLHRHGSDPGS
Sequence of Voltage-dependent L-type calcium channel subunit alpha-1C (P22002 whole entry): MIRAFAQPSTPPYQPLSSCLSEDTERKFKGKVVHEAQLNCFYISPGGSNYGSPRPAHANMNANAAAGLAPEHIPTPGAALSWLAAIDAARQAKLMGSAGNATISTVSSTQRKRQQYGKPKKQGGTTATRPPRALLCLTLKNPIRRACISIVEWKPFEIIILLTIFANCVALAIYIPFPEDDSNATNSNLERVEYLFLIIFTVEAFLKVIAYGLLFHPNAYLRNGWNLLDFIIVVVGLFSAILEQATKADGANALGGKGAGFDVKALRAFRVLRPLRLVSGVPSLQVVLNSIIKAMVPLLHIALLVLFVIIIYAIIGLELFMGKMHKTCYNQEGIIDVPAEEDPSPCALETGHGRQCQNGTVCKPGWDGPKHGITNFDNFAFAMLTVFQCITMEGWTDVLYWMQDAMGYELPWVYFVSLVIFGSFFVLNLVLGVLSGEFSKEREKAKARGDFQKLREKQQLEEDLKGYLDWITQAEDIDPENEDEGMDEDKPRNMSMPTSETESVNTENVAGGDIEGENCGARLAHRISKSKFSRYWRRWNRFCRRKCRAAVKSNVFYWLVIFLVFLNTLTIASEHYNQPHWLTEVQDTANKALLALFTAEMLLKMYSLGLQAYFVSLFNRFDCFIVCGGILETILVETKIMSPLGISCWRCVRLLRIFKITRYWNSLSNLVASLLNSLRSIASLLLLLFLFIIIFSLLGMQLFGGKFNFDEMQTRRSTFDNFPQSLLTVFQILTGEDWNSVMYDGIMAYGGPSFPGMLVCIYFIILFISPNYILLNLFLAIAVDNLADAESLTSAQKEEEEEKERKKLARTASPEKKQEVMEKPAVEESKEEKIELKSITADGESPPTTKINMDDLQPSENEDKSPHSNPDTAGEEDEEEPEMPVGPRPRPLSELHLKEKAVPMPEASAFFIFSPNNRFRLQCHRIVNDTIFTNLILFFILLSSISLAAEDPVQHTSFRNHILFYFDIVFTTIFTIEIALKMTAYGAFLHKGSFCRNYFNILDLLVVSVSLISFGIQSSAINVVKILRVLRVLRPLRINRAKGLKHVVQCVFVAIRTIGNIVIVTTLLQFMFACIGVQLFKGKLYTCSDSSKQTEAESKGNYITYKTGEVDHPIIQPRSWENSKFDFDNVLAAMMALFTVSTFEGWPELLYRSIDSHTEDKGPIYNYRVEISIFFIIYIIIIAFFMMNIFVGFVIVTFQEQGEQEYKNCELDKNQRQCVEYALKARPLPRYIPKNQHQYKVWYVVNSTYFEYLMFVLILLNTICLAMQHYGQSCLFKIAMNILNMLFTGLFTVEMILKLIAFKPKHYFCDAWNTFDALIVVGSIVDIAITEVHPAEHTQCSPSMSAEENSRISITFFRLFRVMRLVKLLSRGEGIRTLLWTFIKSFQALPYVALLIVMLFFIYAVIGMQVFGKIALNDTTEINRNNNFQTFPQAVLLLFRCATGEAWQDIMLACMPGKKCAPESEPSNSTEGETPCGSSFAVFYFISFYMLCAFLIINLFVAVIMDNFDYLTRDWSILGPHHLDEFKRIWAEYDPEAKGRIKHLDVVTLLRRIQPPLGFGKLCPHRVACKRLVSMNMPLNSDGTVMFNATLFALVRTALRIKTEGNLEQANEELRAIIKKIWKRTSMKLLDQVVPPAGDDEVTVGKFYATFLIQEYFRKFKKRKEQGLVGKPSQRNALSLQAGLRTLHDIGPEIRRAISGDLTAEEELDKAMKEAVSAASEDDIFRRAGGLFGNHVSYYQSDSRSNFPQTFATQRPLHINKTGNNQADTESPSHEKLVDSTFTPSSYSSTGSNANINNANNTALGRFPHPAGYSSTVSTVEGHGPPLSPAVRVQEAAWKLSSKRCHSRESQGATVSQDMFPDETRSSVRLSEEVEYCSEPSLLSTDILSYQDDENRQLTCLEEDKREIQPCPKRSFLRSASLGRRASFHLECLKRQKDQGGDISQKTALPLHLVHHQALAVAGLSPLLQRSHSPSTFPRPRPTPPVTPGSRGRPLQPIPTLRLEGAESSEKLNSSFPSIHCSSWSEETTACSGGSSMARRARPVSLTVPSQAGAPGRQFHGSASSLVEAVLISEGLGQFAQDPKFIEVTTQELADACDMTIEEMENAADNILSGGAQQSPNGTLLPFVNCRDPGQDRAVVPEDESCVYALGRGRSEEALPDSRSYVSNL
Sequence of Kappa-type opioid receptor (P41145 whole entry): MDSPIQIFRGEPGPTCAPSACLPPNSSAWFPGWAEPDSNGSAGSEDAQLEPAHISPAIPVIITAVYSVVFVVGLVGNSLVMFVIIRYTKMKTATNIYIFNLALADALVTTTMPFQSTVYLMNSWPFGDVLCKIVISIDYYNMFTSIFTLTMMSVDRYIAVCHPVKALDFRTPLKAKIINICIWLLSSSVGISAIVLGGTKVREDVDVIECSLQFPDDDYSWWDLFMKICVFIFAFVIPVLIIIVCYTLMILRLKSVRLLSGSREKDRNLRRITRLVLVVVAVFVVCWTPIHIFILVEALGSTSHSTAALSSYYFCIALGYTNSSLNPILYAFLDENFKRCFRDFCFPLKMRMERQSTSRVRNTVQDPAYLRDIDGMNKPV

Row | Structure (SMILES) | AC50 [1] [µM] | AC50 [2] [µM] | AC50 [3] [µM] | AC50 [4] [µM] | AC50 [5] [µM] | AC50 [6] [µM] | AC50 (Thromboxane A2 receptor) [µM] | AC50 [7] [µM]
1 | CO/N=C(\C(=O)N[C@@H]1C(=O)N2C(C(=O)O)=CCS[C@H]12)c1csc(N)n1 [CEFTIZOXIME] | > 30 | > 30 | > 30 | > 30 | > 30 | – | – | –
2 | Fc1ccc([C@@H]2CCNC[C@H]2COc2ccc3c(c2)OCO3)cc1 [PAROXETINE] | – | – | – | > 30 | > 30 | 2.5 | > 30 | –
3 | CO[C@H]1C[C@H](O[C@H]2CC[C@@]3(C)[C@H](CC[C@@H]4[C@@H]3CC[C@]3(C)[C@@H](C5=CC(=O)OC5)[C@@H](OC(C)=O)C[C@]43O)C2)O[C@@H](C)[C@@H]1O [OLEANDRIN] | > 30 | > 30 | > 30 | – | – | – | – | > 30
4 | O=c1c(O)c(-c2ccc(O)c(O)c2)oc2cc(O)cc(O)c12 [QUERCETIN] | – | 10 | > 30 | > 30 | > 30 | > 10 | > 30 | 12.7
5 | O=c1[nH]c2ccccc2n1CCCN1CCN(C(c2ccccc2)c2ccccc2)CC1 [OXATOMIDE] | > 30 | 6.6 | 0.026 | > 30 | – | – | > 30 | 13
6 | CC1=C(/C=C/C(C)=C/C=C/C(C)=C/CO)C(C)(C)CCC1 [RETINOL] | – | > 10 | – | > 10 | > 10 | > 10 | > 10 | –
7 | NS(=O)(=O)c1cc2c(cc1Cl)N=C(CSCc1ccccc1)NS2(=O)=O [BENZTHIAZIDE] | – | > 10 | > 30 | > 10 | > 10 | > 10 | > 10 | > 10
8 | CCN1CCCC1CNC(=O)c1cc(S(=O)(=O)CC)ccc1OC (configuration not stated) [SULTOPRIDE] | > 30 | > 30 | 3.5 | > 30 | – | – | > 30 | > 30
9 | CC(C)[C@@H](C)/C=C/[C@@H](C)[C@H]1CC[C@H]2/C(=C/C=C3\C[C@@H](O)CC[C@@H]3C)CCC[C@]12C [DIHYDROTACHYSTEROL] | – | > 10 | > 30 | > 10 | > 10 | > 10 | > 10 | > 10
10 | CC(C)NC[C@H](O)COc1ccc(CC(N)=O)cc1 [ESATENOLOL] | – | – | – | > 30 | > 30 | – | > 30 | > 10
11 | Cc1cc(C)nc(NS(=O)(=O)c2ccc(N)cc2)n1 [SULFAMETHAZINE] | – | > 10 | > 30 | > 10 | > 10 | > 10 | > 10 | > 10
12 | CCCC(C)(COC(N)=O)COC(N)=O [MEPROBAMATE] | – | > 10 | > 30 | > 10 | > 10 | > 10 | > 10 | > 10
13 | C[C@]12C/C(=C/O)C(=O)C[C@@H]1CC[C@@H]1[C@@H]2CC[C@@]2(C)[C@H]1CC[C@]2(C)O [OXYMETHOLONE] | > 30 | > 30 | > 30 | 19 | – | – | > 30 | > 30
14 | CCCN(CCC)S(=O)(=O)c1ccc(C(=O)O)cc1 [PROBENECID] | – | > 10 | > 30 | > 10 | > 10 | > 10 | > 10 | > 10
15 | O=C(O)CCNC(=O)c1ccc(/N=N/c2ccc(O)c(C(=O)O)c2)cc1 [BALSALAZIDE] | – | > 30 | > 30 | > 30 | 30 | > 30 | > 30 | > 30
16 | CO/N=C(\C(=O)N[C@@H]1C(=O)N2C(C(=O)O)=C(CSc3nc(=O)c(=O)[nH]n3C)CS[C@H]12)c1csc(N)n1 [CEFTRIAXONE] | > 30 | > 30 | > 30 | > 30 | > 30 | – | – | > 30
17 | NC(=O)NC(=O)Cc1ccccc1 [PHENACEMIDE] | – | > 10 | > 30 | > 10 | > 10 | > 10 | > 10 | > 10
18 | CCOC(=O)[C@@H](N)Cc1ccc(-c2cc(O[C@H](c3ccc(Cl)cc3-n3ccc(C)n3)C(F)(F)F)nc(N)n2)cc1 [TELOTRISTAT ETHYL] | > 30 | > 30 | 26 | > 30 | > 30 | – | – | > 30
19 | COc1cc2[nH]c(C)c(CCN3CCN(c4ccccc4)CC3)c2cc1OC [OXYPERTINE] | > 30 | > 30 | – | > 30 | > 30 | – | > 30 | > 30
20 | CCCCCCCC(=O)CC[C@@H]1[C@@H](C/C=C\CCCC(=O)OC(C)C)[C@@H](O)C[C@H]1O [UNOPROSTONE ISOPROPYL] | – | – | – | > 30 | – | – | – | –
21 | COc1cc(C(=O)OCc2cccc(COC(=O)c3cc(OC)c(OC)c(OC)c3)n2)cc(OC)c1OC [PIROZADIL] | > 30 | > 30 | > 30 | > 30 | > 30 | – | > 30 | > 30
22 | O=C(NCCO[N+](=O)[O-])c1cccnc1 [NICORANDIL] | > 30 | > 30 | > 30 | > 30 | > 30 | – | > 30 | > 30
23 | C[N+]12CCC(CC1)C(OC(=O)C(O)(c1ccccc1)c1ccccc1)C2 (configuration not stated) | > 30 | – | 1.3 | > 30 | – | – | > 30 | > 30
24 | CCN(CC)CCCC(C)Nc1c2ccc(Cl)cc2nc2ccc(OC)cc12 (configuration not stated) [QUINACRINE] | – | – | 0.7 | – | – | – | – | –
25 | c1ccc(C2(N3CCCCC3)CCCCC2)cc1 [PHENCYCLIDINE] | > 30 | > 30 | 12 | > 30 | > 30 | – | > 30 | > 30
